Assay results: article PMC5733478, “A Non-imaging High Throughput Approach to Chemical Library Screening at the Unmodified Adenosine-A3 Receptor in Living Cells” (Frontiers in Pharmacology, 2017)

target: T1, human A3AR (Homo sapiens, UniProt P0DMS8); test: LOPAC library primary screen: single concentration (10 μM) inhibition of 25 nM CA200645 binding, PHERAstar FS; conditions: not given
T1 construct: expressed in transfected cells
T1 sequence (P0DMS8 1-318): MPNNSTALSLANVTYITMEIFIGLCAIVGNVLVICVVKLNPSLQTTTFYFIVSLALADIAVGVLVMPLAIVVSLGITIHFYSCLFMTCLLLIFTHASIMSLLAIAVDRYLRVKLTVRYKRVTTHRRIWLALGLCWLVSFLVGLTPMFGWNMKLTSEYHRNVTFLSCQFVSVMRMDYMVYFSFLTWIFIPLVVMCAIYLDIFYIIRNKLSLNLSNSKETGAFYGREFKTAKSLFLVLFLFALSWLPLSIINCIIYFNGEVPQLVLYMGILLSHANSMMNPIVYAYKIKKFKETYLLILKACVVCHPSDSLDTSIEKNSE

Molecule	% 25 nM CA200645 binding
C=CCn1c(=O)c2c(nc(-c3ccc(S(=O)(=O)O)cc3)n2C)n(C)c1=O	97.5 ± 9.3%
Cl.NC1(C(=O)O)CCCCC1	108.3 ± 1.1%
Cl.NC1(C(=O)O)CC1	88.3 ± 14.5%
Clc1ccc(C(c2ccccc2Cl)C(Cl)Cl)cc1 (stereo not shown)	87.8 ± 23.1%
COc1ccccc1N1CCNCC1.Cl	114.8 ± 8.3%
COc1ccc2c(c1)c(CC(=O)O)c(C)n2Cc1ccc(Cl)cc1	97.1 ± 10.6%
CC1CN(S(=O)(=O)c2cccc3cnccc23)CCN1.Cl.Cl (stereo not shown)	95.4 ± 14.7%
COc1ccc2c(c1)c(CC(=O)O)c(C)n2C(=O)c1ccccc1	59.0 ± 9.2%
C[N+]1(C)CCN(c2ccccc2)CC1.[I-]	102.6 ± 13.3%
CCCc1c(-c2ccc(O)cc2)nn(-c2ccc(O)cc2)c1-c1ccc(O)cc1	35.7 ± 9.6%
Cl.NCC(O)C1CCCCCCC1 (stereo not shown)	94.5 ± 6.6%
CSc1nc(N)c2ncn([C@@H]3O[C@H](COP(=O)([O-])OP(=O)([O-])OP(=O)([O-])[O-])[C@@H](O)[C@H]3O)c2n1.[Na+].[Na+].[Na+].[Na+]	99.0 ± 0.7%
Br.Br.N=C(N)SCCN	91.5 ± 12.4%
CSc1nc(N)c2ncn([C@@H]3O[C@H](COP(=O)([O-])OP(=O)([O-])[O-])[C@@H](O)[C@H]3O)c2n1.O.[Na+].[Na+].[Na+]	100.3 ± 5.3%
NC(=O)COc1c(F)cc(SCCNS(=O)(=O)c2ccccc2)cc1F	109.8 ± 13.1%
CN1C2CCC1CC(OC(=O)c1c[nH]c3ccccc13)C2.Cl (stereo not shown)	109.6 ± 9.2%
C[N+]1(C)C2CCC1CC(OC(=O)c1c[nH]c3ccccc13)C2.[I-] (stereo not shown)	95.6 ± 4.9%
Cl.Fc1ccc(C(OCCCc2c[nH]cn2)c2ccc(F)cc2)cc1	99.1 ± 1.1%
Cl.N=C(N)c1ccc(CS(=O)(=O)F)cc1	98.9 ± 8.1%
O=C(O)c1cc([N+](=O)[O-])ccc1NCCCc1ccccc1	120.8 ± 13.5%
Cc1ccc(S(=O)(=O)O)cc1.NC[C@H]1O[C@@H](n2cnc3c(N)ncnc32)[C@H](O)[C@@H]1O	85.5 ± 26.7%
COc1ccc2[nH]c3c(c2c1)CCNC3	93.4 ± 1.1%
Cc1cccc(C#Cc2ccccc2)n1.Cl	95.8 ± 6.2%
Oc1cc(-c2ccccc2)nc2nc(Cl)ccc12	77.8 ± 8.8%

Molecule	% 25 nM CA200645 binding
Nc1ncnc2c1c(-c1ccc(Oc3ccccc3)cc1)cn2C1CCCC1	58.8 ± 13.2%
COCc1nc2c([nH]1)c(=O)n(C)c(=O)n2CC(C)C	99.2 ± 10.1%
Cl.Nc1c2c(nc3ccccc13)CCCC2	100.2 ± 15.6%
C[C@H]1CCC/C=C/[C@@H]2C[C@H](O)C[C@H]2[C@H](O)/C=C/C(=O)O1	87.5 ± 5.2%
C[N+](C)(C)CCOP(=O)([O-])OP(=O)([O-])OC[C@H]1O[C@@H](n2ccc(N)nc2=O)[C@H](O)[C@@H]1O.[Na+]	102.5 ± 15.7%
Cl.Nc1ccn([C@@H]2O[C@H](CO)[C@@H](O)[C@@H]2O)c(=O)n1	98.1 ± 3.7%
Br.COc1ccc2c(c1)[C@]13CCCC[C@@H]1[C@H](C2)N(C)CC3.O	102.0 ± 12.4%
NC(N)=Nc1ccc2[nH]c3c(c2c1)C[C@@]1(O)[C@H]2Cc4ccc(O)c5c4[C@@]1(CCN2CC1CC1)[C@H]3O5.O=C(O)C(F)(F)F.O=C(O)C(F)(F)F	93.9 ± 7.0%
Cl.O[Si](CCCN1CCCCC1)(c1ccc(F)cc1)C1CCCCC1 (stereo not shown)	104.8 ± 7.7%
C[C@@H](N)Cc1cnc[nH]1.Cl.Cl	98.7 ± 8.4%
COC(=O)[C@@H](N)Cc1ccc(O)c(O)c1.Cl	98.6 ± 13.3%
COc1cccc(C(=O)NCCN2CCN(c3ccc(Cl)cc3)CC2)c1	94.3 ± 6.0%
CNCCc1c[nH]c2ccc(O)cc12.O=C(O)C(=O)O	111.6 ± 33.8%
Cc1ccc(S(=O)(=O)N[C@@H](Cc2ccccc2)C(=O)CCl)cc1	102.0 ± 13.7%
COC(=O)[C@@H](N)CCCN=C(N)N[N+](=O)[O-].Cl	109.0 ± 16.7%
CCCCCCN(CCCCCC)C(=O)Cc1c(-c2ccc(F)cc2)[nH]c2ccccc12	88.5 ± 10.2%
CC(Cc1ccc(O)c(O)c1)C(C)Cc1ccc(O)c(O)c1 (stereo not shown)	79.3 ± 28.3%
Br.CCCN1CCc2cc(O)cc3c2[C@H]1Cc1ccc(O)c(O)c1-3	89.0 ± 14.4%
Br.CN1CCc2cc(O)cc3c2[C@H]1Cc1ccc(O)c(O)c1-3	83.0 ± 14.1%
N[C@H](C(=O)O)[C@H]1C[C@@H]1C(=O)O	107.7 ± 15.6%
C[C@H](O)[C@H](O)[C@H]1CNc2nc(N)[nH]c(=O)c2N1.Cl	101.6 ± 17.7%
CC[C@@H]1Cc2cc(O)ccc2C2=C1c1ccc(O)cc1C[C@H]2CC	85.9 ± 6.0%
Nc1ncnc2c1ncn2[C@@H]1O[C@H](COP(=O)(O)CP(=O)(O)OP(=O)([O-])[O-])[C@H](O)C1O.[Li+].[Li+] (stereo partly shown)	102.3 ± 5.3%
CCCCCCC(C(C)O)n1cnc2c(N)ncnc21.Cl (stereo not shown)	80.7 ± 17.0%

Molecule	% 25 nM CA200645 binding
17alpha-hydroxyprogesterone	104.8 ± 10.6%
10058-F4	75.9 ± 8.5%
Cl.NCCC[C@](N)(C(=O)O)C(F)F (racemic)	103.2 ± 12.1%
COC(=O)C(N)Cc1ccc(Cl)cc1.Cl (racemic)	95.7 ± 6.7%
CC(N)c1cccc(Cl)c1Cl.Cl (racemic)	100.4 ± 9.9%
CC(N)(Cc1ccc(O)c(O)c1)C(=O)O (racemic)	86.8 ± 7.1%
CCCCCCCCCC(=O)NC(CN1CCOCC1)[C@H](O)c1ccccc1.Cl (mixture of isomers)	98.6 ± 11.0%
COC(=O)C(C)(N)Cc1ccc(O)cc1.Cl (racemic)	108.9 ± 8.2%
NC(Cc1cc(O)c(O)cc1O)C(=O)O (racemic) [6-Hydroxy-DL-DOPA]	69.7 ± 9.9%
NC(CP(=O)(O)O)C(=O)O (racemic) [(±)-2-Amino-3-phosphonopropionic acid]	96.0 ± 3.9%
NC(CCP(=O)(O)O)C(=O)O (racemic) [(±)-2-Amino-4-phosphonobutyric acid]	99.9 ± 8.9%
NC(CCCCCP(=O)(O)O)C(=O)O (racemic) [(±)-2-Amino-7-phosphonoheptanoic acid]	52.2 ± 10.8%
Br.Oc1cc2c(c(Cl)c1O)CCNCC2c1ccccc1 (racemic) [(±)-6-Chloro-PB hydrobromide]	99.3 ± 4.1%
Br.CCCN(CCC)C1CCc2ccc(O)cc2C1 (racemic) [(±)-7-Hydroxy-DPAT hydrobromide]	98.0 ± 1.6%
Br.CCCN(CCC)C1CCc2cccc(O)c2C1 (racemic) [(±)-8-Hydroxy-DPAT hydrobromide]	98.2 ± 1.8%
Br.Cc1o[nH]c(=O)c1CC(N)C(=O)O (racemic) [(±)-AMPA hydrobromide]	96.2 ± 10.6%
CC1CCN=C(N)S1.Cl (racemic) [(±)-AMT hydrochloride]	100.6 ± 12.5%
NCC(CC(=O)O)c1ccc(Cl)cc1 (racemic) [(±)-Baclofen]	99.6 ± 6.9%
COC(=O)C1=C(C)NC(C)=C([N+](=O)[O-])C1c1ccccc1C(F)(F)F (racemic) [(±)-Bay K 8644]	95.3 ± 3.4%
CN(C)CCC(c1ccc(Br)cc1)c1ccccn1.O=C(O)/C=C\C(=O)O (racemic) [(±)-Brompheniramine maleate]	101.5 ± 4.3%
CC(C)(C)NCC(O)COc1cccc2[nH]c(=O)[nH]c12.Cl (racemic) [(±)-CGP-12177A hydrochloride]	114.1 ± 10.3%
O=C(O)C1CN(CCCP(=O)(O)O)CCN1 (racemic) [(±)-CPP]	97.2 ± 1.5%
CN(C)CCC(c1ccc(Cl)cc1)c1ccccn1.O=C(O)/C=C\C(=O)O (racemic) [(±)-Chlorpheniramine maleate]	99.2 ± 9.9%

same assay, conditions: % of control wells (1% DMSO and 25 nM CA200645); compounds at 10 µM; whole live cells expressing the A3AR; mean ± SD, three experiments in duplicate

Molecule	% 25 nM CA200645 binding
CCOC(=O)[C@]12CC1/C(=N\O)c1ccccc1O2 (mixture of isomers) [CPCCOEt]	88.3 ± 3.9%

same assay, conditions: compounds tested at 10 µM; % of control wells (1% DMSO and 25 nM CA200645); whole live cells expressing the A3AR; mean ± SD, three experiments in duplicate

Molecule	% 25 nM CA200645 binding
NC(CCCP(=O)(O)O)C(=O)O (racemic) [(±)-2-Amino-5-phosphonopentanoic acid]	90.8 ± 6.2%
